The numbers were not newly measured in patent US8853170B2, “Compositions comprising sugar-cysteine products” (Max International, LLC, priority 2010, dated 2014), which cites them from elsewhere.

The test system of one series is humans. The settings on record: ribose administered directly to humans.
The next series relates to ATP levels. The settings on record: dogs subjected to ischemia, about 3 g/day for at least 5 days.
A further series deals with healthy humans. The settings on record: orally 8-10 g per day by an adult.
The test system of a further series is glutathione levels. The settings on record: mice, 8 mmol/kg i.p.
For series [1], the system named is irradiation-induced bowel injury. The settings on record: mice, doses of 1 g/kg.
Series [2] has as its system mice exposed to cyclophosphamide. The settings on record: 8 mmol/kg.
For series [3], the system named is acetaminophen hepatic and renal toxicity. The settings on record: mice, doses of 2 g/kg.

`O=C[C@H](O)[C@H](O)[C@H](O)CO` [ribose]: the toxicity entry with humans is “essentially non-toxic over wide dosage ranges”. In addition, the ATP levels result in the series with ATP levels was “effectively restored and maintained ATP levels”. For the same compound, the exercise capacity result with healthy humans is listed as “increase exercise capacity”.

Consider `O=C(O)[C@@H]1CSC(C(O)C(O)C(O)CO)N1` (stereo partly drawn) [RibCys, 2(R,S)-D-ribo-(1′,2′,3′,4′-tetrahydroxybutyl)thiazolidine-4(R)-carboxylic acid], for which the “increased glutathione levels, heart” value in the series on glutathione levels (heart) is recorded as 1.5 times. For the same compound, the “increased glutathione levels, muscle tissue” value in the series on glutathione levels (muscle tissue) is 2.5 times. Further, the “protection against irradiation-induced bowel injury” value in series [1] is “protect mice against irradiation-induced bowel injury”. The “delivery of protective amounts of cysteine” value in series [2] is given as “deliver effective protective amounts of cysteine”. Further, in series [3], the “protection against acetaminophen hepatic and renal toxicity” value is “protect mice against acetaminophen hepatic and renal toxicity”.
